Data set [1] concerns Cryptococcus yeast (CHY3833 and CHY3836). The experiment in a line: Yeast replication secondary screen (OD600). Format: cell-based, Cryptococcus neoformans serotype D (deneoformans). The following applies: 10 μM, 12 h at 30°C. As to the method:
(ii) Yeast replication. CHY3833 and CHY3836 were each grown in YPD liquid overnight at 30°C to saturation and then resuspended in 0.5× YPD at an OD600 of 0.005. Strains were aliquoted into 384-well plates with inhibitors and grown for 12 h at 30°C at […] before OD600 readings were taken. Compounds that caused a >10% decrease in growth were considered yeast growth inhibitors.

The test system of data set [2] is normal human dermal fibroblasts (NHDF) cells. The experiment in a line: Fibroblast cytotoxicity (CellTiter-Glo). The data set is classed as cell-based. The following applies: 10 µM. Here is the method: PrimaPure normal human dermal fibroblasts (NHDF) cells (Genlatis PH10605A) were cultured and passaged in fibroblast growth medium (Genlatis PM116500) according to the manufacturer’s protocol. NHDF cells (1 × 10^3 per well) were plated in a 384-well plate in cell culture medium. The cells were incubated with each compound of interest at 10 μM concentration for 72 h at 37°C and 5% CO2. Following treatment, CellTiter-Glo (Promega) reagent was used to assay ATP-dependent luminescence and thus provide a measure of cell viability. […] For cytotoxicity dose-response curves (Fig. 4C and Fig. 5C), compounds were titrated from 80 μM to 0.5 μM in duplicates.

Molecules are shown by their SMILES.

As to `c1ccc(CNc2ncnc3scc(-c4cccs4)c23)nc1` [compound 944383], in data set [1], the “Yeast Inhibition: % Inhibition” value stood at 53.4%. Further, the “Cytotoxicity: Relative Cell Viability (% of Negative Control)” value in data set [2] is on record as 92.9 % of Negative Control.

Consider `CC(C)(c1ccc(O)cc1)c1ccc(Cl)cc1` [compound 1992009], for which, in data set [1], the “Yeast Inhibition: % Inhibition” value came out at 96.6%. The “Cytotoxicity: Relative Cell Viability (% of Negative Control)” value in data set [2] is recorded as 2.1 % of Negative Control.

As to `CCCc1cc(C(=O)OC)c(N2C(=O)C=CC2=O)s1` [compound 7456205], the “Yeast Inhibition: % Inhibition” value in data set [1] is recorded as 101.6%. In addition, the “Cytotoxicity: Relative Cell Viability (% of Negative Control)” value in data set [2] is 4.1 % of Negative Control.

As for `CCCOC1(NS(=O)(=O)c2ccccc2)C(Cl)=C(Cl)C(=O)c2ccccc21` (stereo not drawn) [compound 3397555], in data set [1], the “Yeast Inhibition: % Inhibition” value is given as 101.3%. Moreover, the “Cytotoxicity: Relative Cell Viability (% of Negative Control)” value in data set [2] is 17.7 % of Negative Control.

Turning to `Cc1nc(C)c(C(=O)NCCn2ncc3c(N4CCN(Cc5ccccc5)CC4)ncnc32)s1` [compound 27460748], the “Yeast Inhibition: % Inhibition” value in data set [1] is reported as 22.5%. For the same compound, the “Cytotoxicity: Relative Cell Viability (% of Negative Control)” value in data set [2] was 112.9 % of Negative Control.

Turning to `CC(C)c1nc(-c2ccc(N3CCN(C(=O)Cc4cn(C)c5ccccc45)CC3)nc2)no1` [compound 71780502], the “Yeast Inhibition: % Inhibition” value in data set [1] is recorded as -2.9%. In addition, in data set [2], the “Cytotoxicity: Relative Cell Viability (% of Negative Control)” value is reported as 91.8 % of Negative Control.

With `Cc1ccn(-c2ccc(N3CCN(C(=O)c4ccccc4Br)CC3)nn2)n1` [compound 25667819], the “Yeast Inhibition: % Inhibition” value in data set [1] is on record as -7.4%. For the same compound, the “Cytotoxicity: Relative Cell Viability (% of Negative Control)” value in data set [2] is given as 101.9 % of Negative Control.

For the compound `COc1ccc2nc(N3CCCC(C(=O)O)C3)sc2c1` (stereo not drawn) [compound 53212169], the “Yeast Inhibition: % Inhibition” value in data set [1] is -17.8%. Also, in data set [2], the “Cytotoxicity: Relative Cell Viability (% of Negative Control)” value was 105.4 % of Negative Control.

With `CCCc1cc(=O)[nH]c(-n2nc(C)cc2C)n1` [compound 44116743], in data set [1], the “Yeast Inhibition: % Inhibition” value is recorded as 96.0%. Also, the “Cytotoxicity: Relative Cell Viability (% of Negative Control)” value in data set [2] is 64.3 % of Negative Control.

Regarding `CC1CNc2ccccc2N(Cc2ccc(Br)cc2)C1=O` (stereo not drawn) [compound 20896311], in data set [1], the “Yeast Inhibition: % Inhibition” value is recorded as 5.6%. Further, the “Cytotoxicity: Relative Cell Viability (% of Negative Control)” value in data set [2] is 94.5 % of Negative Control.

As to `O=C(C1CCC1)N(Cc1cccnc1)c1nc2ccc(Cl)cc2s1` [compound 43967671], the “Yeast Inhibition: % Inhibition” value in data set [1] amounted to 78.9%. Moreover, the “Cytotoxicity: Relative Cell Viability (% of Negative Control)” value in data set [2] is 97.1 % of Negative Control.

On to `Cc1cc(-c2nnc(NC(=O)C3Oc4ccccc4OC3C)o2)n(C)n1` (stereo not drawn) [compound 44070699], for which the “Yeast Inhibition: % Inhibition” value in data set [1] is -15.7%. Further, the “Cytotoxicity: Relative Cell Viability (% of Negative Control)” value in data set [2] is 97.2 % of Negative Control.

Take `Cc1cc(C(=O)NCCC(O)c2cccc3ccccc23)c(C)o1` (stereo not drawn) [compound 71787916]: the “Yeast Inhibition: % Inhibition” value in data set [1] is listed as 28.8%. Also, the “Cytotoxicity: Relative Cell Viability (% of Negative Control)” value in data set [2] is 101.1 % of Negative Control.

Take `O=S(=O)(Nc1cccc2ccccc12)c1ccc(Cl)cc1` [compound 310131]: in data set [1], the “Yeast Inhibition: % Inhibition” value is recorded as 59.8%. Besides, in data set [2], the “Cytotoxicity: Relative Cell Viability (% of Negative Control)” value is reported as 67.0 % of Negative Control.

For `CCCCNC(=O)COc1c(C)cc(Br)cc1C` [compound 1570496], the “Yeast Inhibition: % Inhibition” value in data set [1] came out at 47.1%. Further, the “Cytotoxicity: Relative Cell Viability (% of Negative Control)” value in data set [2] is given as 84.5 % of Negative Control.

Take `O=S(=O)(NCC#CCOc1cccc(C(F)(F)F)c1)c1cccs1` [compound 71803055]: in data set [1], the “Yeast Inhibition: % Inhibition” value turned out to be 7.0%. The “Cytotoxicity: Relative Cell Viability (% of Negative Control)” value in data set [2] is recorded as 63.8 % of Negative Control.

Consider `Cc1cccc(CC(=O)Nc2cc(C)ns2)c1` [compound 49722107], for which the “Yeast Inhibition: % Inhibition” value in data set [1] was determined as 32.6%. Moreover, the “Cytotoxicity: Relative Cell Viability (% of Negative Control)” value in data set [2] is recorded as 98.5 % of Negative Control.

On to `C/C=C/c1ccc(OCCn2cnc3ccccc32)c(OC)c1` [compound 5769972], for which the “Yeast Inhibition: % Inhibition” value in data set [1] was determined as 79.1%. Moreover, in data set [2], the “Cytotoxicity: Relative Cell Viability (% of Negative Control)” value is recorded as 97.3 % of Negative Control.

With `COC(=O)c1ccc(Cn2c(S(C)(=O)=O)nc3ccccc32)cc1` [compound 18576765], the “Yeast Inhibition: % Inhibition” value in data set [1] is listed as 3.8%. Further, the “Cytotoxicity: Relative Cell Viability (% of Negative Control)” value in data set [2] was 88.5 % of Negative Control.

As to `NC(=O)c1ccsc1NC(=O)/C=C/c1ccccc1` [compound 6104220], the “Yeast Inhibition: % Inhibition” value in data set [1] stood at 51.7%. Besides, the “Cytotoxicity: Relative Cell Viability (% of Negative Control)” value in data set [2] is reported as 50.8 % of Negative Control.

As to `COC(=O)Nc1nc(CC(=O)N2CCN(c3cccc(Cl)c3Cl)CC2)cs1` [compound 16883840], the “Yeast Inhibition: % Inhibition” value in data set [1] is reported as 3.5%. Besides, in data set [2], the “Cytotoxicity: Relative Cell Viability (% of Negative Control)” value was 62.6 % of Negative Control.
